According to patent US20040171795A1, “Novel peptides” (priority 2000, published 2004):

What was measured:
[1] = Measurement of turbidity in BSA; assay type: physicochemical; conditions: BSA 1%, peptide 50 μM, absorbance at 600 nm
Method: The solutions were evaluated for their absorbance at a wavelength of 600 nm by using a spectrophotometer (DU640, manufactured by Beckman).

[2] = Affinity for phosphatidyl serine (EIA, inhibition of human Factor VIII binding); conditions: class of IC50 for inhibiting human Factor VIII binding, 5% BSA
Method: The specific affinity of the peptide for phosphatidyl serine was evaluated by measuring activity of the peptide for inhibiting the binding of the human Factor VIII to phosphatidyl serine by using human Factor VIII which is known to bind to phosphatidyl serine but not to phosphatidyl choline in the presence of serum albumin. To be more specific, 100 μL of ethanol solution containing 10 μg/mL of phospholipids at a phosphatidyl serine (manufactured by SIGMA): phosphatidyl choline (manufactured by SIGMA) ratio of 3:7 was added to the wells of a 96 well plate (Immulon I, manufactured by Dynatech), and exsiccated by using a centrifugal evaporator (EC-95C, manufactured by Sakuma Seisakusho) at 40° C. for 40 minutes. 200 μL each of TBS (10 mM Tris-HCl (pH 7.4) containing 1% bovine serum albumin (BSA Fraction V, hereinafter referred to as BSA, manufactured by Seikagaku Corporation) and 0.9% (W/V) NaCl solution were added to each well, and the wells were blocked by allowing the plate to stand at 37° C. for 2.5 hours. After washing the plate with water, 100 μL of TBS solution supplemented with 5% BSA mixed with human Factor VIII (manufactured by American Diagnostica) at a final concentration 1 μg/mL and the peptide of predetermined dose prepared in Example 1 was added to each well, and the reaction was allowed to take place at 4° C. for 24 hours.
After the completion of the reaction, the human Factor VIII that became bound to the phosphatidyl serine was measured by enzyme immunoassay (EIA) in accordance with the general procedure described in a book (“Enzyme Immunoassay (3rd ed.)”, Eiji Ishikawa et al., Igaku-Shoin, 1987). To be more specific, the measurement was conducted by using anti-human Factor VIII mouse monoclonal antibody (ESH8, manufactured by American Diagnostica) for the primary antibody, horseradish peroxidase-labeled anti-mouse IgG antibody (P0260, manufactured by Daco) for the secondary antibody, and tetramethylbenzidine for the chromogenic substrate, and measuring the absorption at a wavelength of 450 nm by using a reference wavelength of 630 nm on a spectrophotometer (NJ-2100, manufactured by Intermed).
Intensity of the affinity of the peptide for the phosphatidyl serine was evaluated by using the value obtained by subtracting the absorption of the well having no human Factor VIII added thereto from the absorption of the well having only the human Factor VIII added thereto as the control value (100%), and designating the peptide concentration at which the value 0.5 was obtained when the value obtained by subtracting the absorption of the well having only the peptide added thereto from the absorption of the well having a mixture of the human Factor VIII and the peptide added thereto were divided by the control value as the IC50 value, and evaluating the intensity to be ++ when the IC50 value was up to 1 μM, and +when the intensity was more than 1 μM but not more than 10 μM. It is to be noted that the specific affinity was evaluated to be none when the intensity was 10 μM or more.

[3] = tested on: cell (Vero, T24 or A549 of Example 9; not given); test: Nucleic acid-introducing ability, luciferase-expressing plasmid (procedure of Example 9); assay type: cell-based; conditions: for Nucleic acid-introducing ability: class of fluorescent count per 1 mg of protein per 1 second, highest of peptide 1.25, 2.5, 5 μM, plasmid 1 μg/mL
From the text: A cell line established from monkey kidney (Vero cell) and a human bladder cancer cell (T24 cell) purchased from American Type Culture Collection (ATCC) and human lung cancer cell (A549 cell) purchased from Dainippon Pharmaceutical were inoculated on a 24 well culture plate (manufactured by NALGEN NUNC) at 1×10^5 cells/well. Vero cell and A549 cell were cultivated in DMEM (manufactured by Life Technologies Oriental) supplemented with 10% fetal bovine serum (hereinafter referred to as FBS, manufactured by NICHIREI), and T24 cell was cultivated in McCoy's 5a (manufactured by Life Technologies Oriental) supplemented with 10% FBS in 5% CO2 atmosphere at 37° C. for 24 hours. After removing the medium, opti-MEM (manufactured by Life Technologies Oriental) prepared to have the concentration of the luciferase-expressing plasmid prepared in Example 7 of 1 μg/mL and the concentration of the peptide prepared in Example 1 of 1.25, 2.5, or 5 μM was added, and the cells were cultivated for 5 hours. Next, in the case of Vero cell and A549 cell, the culture medium was replaced with DMEM supplemented with 10% FBS, and in the case of T24 cell, the medium was replaced with McCoy's 5a supplemented with 10% FBS, and cultivation was continued in 5% CO2 atmosphere and at 37° C. for another 24 hours. The luciferase activity expressed in the cell was then measured by the method instructed in luciferase assay system (manufactured by Promega). To be more specific, the cells were washed with phosphate-buffered saline (hereinafter referred to as PBS, manufactured by SIGMA), and the cells were lyzed with Passive Lysis Buffer attached to the kit. 20 μL of this cell lysate and 100 μL of the Luciferase Assay Reagent II attached to the kit was added to a fluorescence-measuring plate (Microlite™ 1 plate, manufactured by Dynatech), and after mixing, fluorescence was measured for 1 second by using a multilabel counter (ARVO™ SY1420 MULTILABEL COUNTER, manufactured by Wallac Beltold.
Concentration of the protein in the cell lysate was measured by mixing 8 μL of the cell lysate and 200 μL of the protein assay solution (manufactured by Biorad) with 792 μL of ultrapure water in a disposable cuvette (UV fluorescent cuvette A204X, manufactured by Funakoshi), allowing the mixture to stand for 5 minutes at room temperature, and measuring the absorption at 595 nm with a spectrophotometer (DU640, manufactured by Beckman). Bovine serum albumin (BSA) was used for the standard protein. By using the thus obtained results, count per 1 second per 1 mg of protein of the cell lysate was calculated to thereby use the count as the luciferase activity, and the highest count in the three conditions of different peptide concentration was designated the gene-introducing ability of the peptide.
It is to be noted that the nucleic acid-introducing ability was classified as described below on the bases of the fluorescent count per 1 mg of protein per 1 second (cps/mg protein).

Substance | OD 600 [1] | IC50 [2] [nM] | Nucleic acid-introducing ability [3] | ability of introducing the nucleic acid into a cell ([3]; procedure of Example 9, luciferase-expressing plasmid)
SEQ ID NO: 17: peptide of SEQ ID NO:1 with one or two locations substituted in the 18 amino acid sequence (TRSLRIHPRLWVHQIALRLRSLRIHPRLWVHQIALRS; synthetic peptide using an automatic peptide synthesizer) | 0.01> | < 1000 | 2+ (100,000 to less than 1,000,000) | 
SEQ ID NO: 3: peptide of SEQ ID NO:1 with one or two locations substituted in the 18 amino acid sequence (TRYLRIHPRSWVHQIRLRLRYLRIHPRSWVHQIRLRS; synthetic peptide using an automatic peptide synthesizer) | 0.01> | < 1000 | 2+ (100,000 to less than 1,000,000) | 
SEQ ID NO: 2: peptide of SEQ ID NO:1 with one or two locations substituted in the 18 amino acid sequence (TRYLRIHPRSWVRQIALRLRYLRIHPRSWVRQIALRS; synthetic peptide using an automatic peptide synthesizer) | 0.01> | < 1000 | 3+ (1,000,000 to less than 10,000,000) | 
SEQ ID NO: 5: peptide of SEQ ID NO:1 with one or two locations substituted in the 18 amino acid sequence (TRFLRIHPRSWVHQIALRLRFLRIHPRSWVHQIALRS; synthetic peptide using an automatic peptide synthesizer) | 0.01> | < 1000 | 2+ (100,000 to less than 1,000,000) | 
SEQ ID NO: 8: peptide of SEQ ID NO:1 with one or two locations substituted in the 18 amino acid sequence (TRYLRIHPKSWVHQIALRLRYLKIHPRSWVHQIALRS; synthetic peptide using an automatic peptide synthesizer) | 0.01> | 1000 to 10000 | 3+ (1,000,000 to less than 10,000,000) | 
SEQ ID NO: 23: deletion mutant of the peptide of SEQ ID NO:1 (TIHPRSWVHQIALRLRYLRIHPRSWVHQIAS; synthetic peptide using an automatic peptide synthesizer) | 0.01> | < 1000 | 2+ (100,000 to less than 1,000,000) | had the ability of introducing the nucleic acid into a cell
SEQ ID NO: 15: peptide of SEQ ID NO:1 with one or two locations substituted in the 18 amino acid sequence (TRYLRIRPRSWVRQIALRLRYLRIRPRSWVRQIALRS; synthetic peptide using an automatic peptide synthesizer) | 0.01> | < 1000 | 2+ (100,000 to less than 1,000,000) | 
